Laboratory results published in patent publication US11878063B2, “Engineered ligands and uses thereof” (Children's Medical Center Corporation, priority 2019, dated 2024).
Square brackets hold non-standard residues; d marks the D form. Ends that are not written are not given here. Peptide text beside a SMILES is read from it. hArg = N=C(N)NCCCC[C@H](N)C(=O)O; Aib = CC(C)(N)C(=O)O

How the values were obtained:
[1] = biological target: T1, PTHR2 (Homo sapiens, UniProt P49190); experiment: cAMP induction in HEK293 cells stably expressing human PTHR2; type: cell-based
T1 construct: expressed in transfected cells
Protocol: (§1) Measurement of cAMP response. These assays were performed as previously described^27. […] Confluent monolayers of cells were pre-incubated with CO2 independent medium containing D-luciferin (0.5 mM) at 37° C. until a stable baseline level of luminescence was established (20 min). Varying concentrations of ligands were then added, and the time course of luminescence response was recorded using BioTek plate reader.
(§2) Data calculations. Data were processed using Microsoft Excel and GraphPad Prism 6. Data from cAMP dose-response assays were analyzed using a sigmoidal dose-response model with variable slope. Data sets were statistically compared by using Student's t test (two-tailed) assuming unequal variances for the two sets.

[2] = system: Mice (CD1 female); experiment: Calcemic response: blood ionized calcium in mice after subcutaneous injection; type: in vivo, mouse; details: 35 nmol/kg subcutaneous, n=4
Protocol: Animal experiments and measurement of in vivo response. Mice (CD1 female, age 11 weeks) were treated in accordance with the ethical guidelines adopted by Massachusetts General Hospital. […] Peptides and conjugates were administered at doses that allowed for differentiation between compounds with differing levels of in vivo activity^27. Statistical analyses were performed assuming Gaussian distribution of data. Mice (n=4 per compound) were injected subcutaneously with vehicle (10 mM citric acid/150 mM NaCl/0.05% Tween-80, pH 5.0) or vehicle containing PTH or conjugate at a dose of 35 nmol/kg body weight. […] Blood was withdrawn just before injection (t=0) or at times thereafter. Tail vein blood was collected and immediately analyzed. Blood Ca^2+ concentration was measured with a Siemens RapidLab 348 Ca2+/pH analyzer.

[3] = biological target: T2, PTHR16E (Homo sapiens, UniProt Q03431, A83I/D81R/G76A/K80A/K82Q/P78E/R79L/S71Q/S73D/S75E/T74Q); experiment: cAMP induction in HEK293 cells stably expressing PTHR16E (6E/Ubc6e epitope tag in exon 2 segment); type: cell-based
T2 construct: expressed in transfected cells
T2 sequence (Q03431 27-593 S71Q/S73D/T74Q/S75E/G76A/P78E/R79L/K80A/D81R/K82Q/A83I): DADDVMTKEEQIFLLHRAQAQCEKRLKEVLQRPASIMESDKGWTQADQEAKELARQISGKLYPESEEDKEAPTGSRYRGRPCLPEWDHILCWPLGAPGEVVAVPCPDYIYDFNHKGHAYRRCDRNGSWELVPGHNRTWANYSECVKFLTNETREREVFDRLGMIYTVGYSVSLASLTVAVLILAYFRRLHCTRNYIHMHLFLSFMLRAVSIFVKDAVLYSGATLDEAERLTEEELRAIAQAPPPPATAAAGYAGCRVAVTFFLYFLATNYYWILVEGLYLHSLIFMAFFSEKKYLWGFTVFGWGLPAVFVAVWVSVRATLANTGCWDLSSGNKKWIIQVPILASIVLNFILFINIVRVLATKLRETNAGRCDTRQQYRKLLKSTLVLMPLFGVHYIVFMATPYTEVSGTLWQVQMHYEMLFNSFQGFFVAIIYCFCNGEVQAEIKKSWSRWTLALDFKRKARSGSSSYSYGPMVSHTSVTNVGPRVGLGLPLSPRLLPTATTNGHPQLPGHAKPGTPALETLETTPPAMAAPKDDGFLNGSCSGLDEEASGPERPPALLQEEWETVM
Protocol: (§3) Measurement of cAMP response. These assays were performed as previously described^27. Briefly, HEK-293-derived cell lines that stably express the Glosensor cAMP reporter (Promega Corp.)^30 and PTHR1, a PTHR1 variant, or PTHR2 were seeded into white sided 96 well plates (50,000 cells/well) and grown to confluency. Confluent monolayers of cells were pre-incubated with CO2 independent medium containing D-luciferin (0.5 mM) at 37° C. until a stable baseline level of luminescence was established (20 min). Varying concentrations of ligands were then added, and the time course of luminescence response was recorded using BioTek plate reader.
as §2
(§4) The portion of PTHR1 encoded by exon 2 is not resolved in structural studies (FIG. 12—Panel d)^13, 14, 17, is not important for ligand binding^18, and in past work has been targeted as a site for receptor modification^18, 19. A construct was generated that encodes a PTHR1 variant in which a 14-residue fragment from exon 2 was replaced with a 14-mer epitope tag from the intracellular protein UBC6e (PTHR16E, FIG. 12—Panel d)^20. A receptor construct in which a pH-sensitive green fluorescent protein variant (GFP) was inserted into the portion of the receptor encoded by exon 2 (PTHR1GFP in FIGS. 17A to 17C)^19. Another version of PTHR1 in which yellow fluorescent protein (YFP) replaces the entire extracellular domain (PTHR1YFPΔECD, FIG. 12—Panel e)^21, was also used.

[4] = system: PTHR1YFPΔECD; experiment: cAMP induction in HEK293 cells stably expressing PTHR1YFPΔECD (YFP replaces extracellular domain); type: cell-based, human
Protocol: as §3, §2, §4

[5] = biological target: T3, human PTHR1 (Homo sapiens, UniProt Q03431); experiment: cAMP induction (cAMP-responsive luciferase) in HEK293 cells stably expressing human PTHR1; type: cell-based
T3 construct: expressed in transfected cells
T3 sequence (Q03431 27-593): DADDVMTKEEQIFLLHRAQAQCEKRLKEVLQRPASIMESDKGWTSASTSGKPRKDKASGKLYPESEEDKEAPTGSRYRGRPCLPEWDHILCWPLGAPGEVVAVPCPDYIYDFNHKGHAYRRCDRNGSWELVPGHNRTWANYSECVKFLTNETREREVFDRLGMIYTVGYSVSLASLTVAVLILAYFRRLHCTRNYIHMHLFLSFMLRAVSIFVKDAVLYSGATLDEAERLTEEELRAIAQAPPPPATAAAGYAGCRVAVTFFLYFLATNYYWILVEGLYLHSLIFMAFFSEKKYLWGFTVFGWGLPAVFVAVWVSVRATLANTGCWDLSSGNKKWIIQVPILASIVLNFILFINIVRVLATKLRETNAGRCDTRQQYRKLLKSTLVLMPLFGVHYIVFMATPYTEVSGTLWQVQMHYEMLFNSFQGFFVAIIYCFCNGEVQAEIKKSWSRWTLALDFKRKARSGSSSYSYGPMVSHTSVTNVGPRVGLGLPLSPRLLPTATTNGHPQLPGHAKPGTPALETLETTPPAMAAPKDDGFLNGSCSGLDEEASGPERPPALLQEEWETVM
Protocol: as §1, §2

[6] = system: PTHR1GFP; experiment: cAMP induction in HEK293 cells stably expressing PTHR1GFP; type: cell-based, human
Protocol: The GFP-PTHR1 fusion was stably expressed in cells that respond to receptor engagement by activation of a cAMP-sensitive version of luciferase. Exposure of these transfectants to PTH(1-11) yielded the expected dose-response curve with half maximal stimulation at ˜200 nM.
as §3, with “reader. The maximal luminescence response (observed 12-16 min after ligand addition) was used to construct dose-response data sets (Table 4, FIGS. 22A to 22E).” for “reader.”
as §2
as §4, with “While there is no structural information for any VHH bound to PTHR1, a mode of interaction was envisioned between the receptor and VHH-PTH conjugates like that depicted in FIG. 12—Panel c. The” for “The”

[7] = biological target: T1, PTHR2; experiment: Flow cytometry staining by VHH-Alexafluor647 of HEK293 cells expressing PTHR2; type: binding; details: 100 nM VHH
Protocol: Flow cytometry. Suspensions of cells in PBS were stained for 1 hour on ice in the presence of indicated concentrations of VHH probes functionalized with Alexafluor647. Cells were pelleted by centrifugation and washed with PBS prior to analysis by flow cytometry (BD Accuri C6). Gating was performed on forward scatter/side scatter profiles to analyze intact cells. Data was analyzed using FlowJo version 7.6. The median fluorescent intensity (MFI) of stained cells was used to generate VHH binding dose response curves (FIG. 20).

[8] = mean ± SD, Inactive = response <5% of maximal
[9] = maximal cAMP response, normalized

T1 sequence (P49190 25-550): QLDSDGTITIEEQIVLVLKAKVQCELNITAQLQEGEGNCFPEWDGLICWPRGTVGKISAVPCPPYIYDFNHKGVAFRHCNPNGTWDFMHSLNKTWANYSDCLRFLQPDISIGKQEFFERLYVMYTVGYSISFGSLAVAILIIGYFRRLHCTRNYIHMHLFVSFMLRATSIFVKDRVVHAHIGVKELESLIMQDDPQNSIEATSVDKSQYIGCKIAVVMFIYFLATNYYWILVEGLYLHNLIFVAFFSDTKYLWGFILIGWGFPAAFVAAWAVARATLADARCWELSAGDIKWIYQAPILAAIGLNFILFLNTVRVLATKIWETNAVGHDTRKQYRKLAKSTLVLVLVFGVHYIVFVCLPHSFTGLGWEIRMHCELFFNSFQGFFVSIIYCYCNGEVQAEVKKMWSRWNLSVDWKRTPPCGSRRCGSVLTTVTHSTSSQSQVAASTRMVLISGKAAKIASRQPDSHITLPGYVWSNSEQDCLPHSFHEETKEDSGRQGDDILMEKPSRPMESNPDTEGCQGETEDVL

TIP 39
activation of human PTHR2 (in words) [1]: activated

M-PTH(1-14): UVUEIQLMHQXAKW (SEQ ID NO: 90) where U is Aib and X is homoarginine ([Aib]V[Aib]EIQLMHQ[hArg]AKW; not fully specified (C-terminus))
blood ionized calcium response [2]: little if any activity

modified N-terminal PTH fragment with Aib3, amide; probably AV(Aib)EIQLMH (SEQ ID NO: 86) [PTH(1-9)]
EC50, cAMP induction, PTHR16E [3, 8]: Inactive at 10,000 nM
activation of PTHR1 with ECD replaced by fluorescent protein (in words) [4]: inactive alone
EC50, cAMP induction, hPTHR1YFPΔECD [4, 8]: Inactive at 10,000 nM
EC50, cAMP induction, hPTHR1 ([5]; mean ± SD, Inactive = response <5% of maximal response at that concentration): Inactive at 10,000 nM
EC50, cAMP induction, hPTHR1GFP [6, 8]: Inactive at 10,000 nM

CC[C@H](C)[C@H](NC(=O)[C@H](CCC(=O)O)NC(=O)C(C)(C)NC(=O)[C@@H](NC(=O)[C@H](C)N)C(C)C)C(=O)N[C@@H](CCC(N)=O)C(=O)N[C@@H](CC(C)C)C(=O)N[C@@H](CCSC)C(=O)N[C@@H](Cc1c[nH]cn1)C(=O)N[C@@H](CCC(N)=O)C(=O)N[C@@H](CCCNC(=N)N)C(=O)N[C@@H](C)C(=O)N[C@@H](CCCCN)C(=O)N[C@@H](Cc1c[nH]c2ccccc12)C(=O)N[C@@H](CS)C(N)=O [PTH(1-14)] (H-AV[Aib]EIQLMHQRAKWC-NH2)
activation of human PTHR2 (in words) [1]: activated
Max (normalized ± SD), hPTHR2 [1, 9]: 1.14 ± 0.28
EC50 ([1]; mean ± SD, read-out: EC50, cAMP induction, hPTHR2): 924 ± 328 nM
Max (normalized ± SD), hPTHR16E [3, 9]: 1.06 ± 0.12
Max (normalized ± SD), hPTHR1YFPΔECD [4, 9]: 0.96 ± 0.04
EC50 ([4]; mean ± SD, Inactive = response <5% of maximal, read-out: EC50, cAMP induction, hPTHR1YFPΔECD): 1.1 ± 0.9 nM
activation of wild-type human PTHR1 (in words) [5]: activated
Max (normalized ± SD), hPTHR1 [5, 9]: 1.01 ± 0.07
EC50 ([5]; mean ± SD, Inactive = response <5% of maximal response at that concentration, read-out: EC50, cAMP induction, hPTHR1): 4.3 ± 2 nM
Max (normalized ± SD), hPTHR1GFP [6, 9]: 1.09 ± 0.03
EC50 ([6]; mean ± SD, Inactive = response <5% of maximal, read-out: EC50, cAMP induction, hPTHR1GFP): 2.3 ± 1.2 nM

B1: VHH6E: nanobody that recognizes a 14-mer peptide from UBC6e (…), SEQ ID NO: 71 (protein)
VHH: QVQLQESGGGLVQPGGSLRLSCAASGFVFENSAMAWYRQAPGKERELIAVIGTTFIKLAESVKGRFTISRDNAKSTVYLQMNNLKPEDTAVYYCSKSGAYWGQGTQVTVSSLPETGG
binding to PTHR2 (in words) [7]: lack of binding

B2: VHH05-PTH(1-34): PTH(1-34)-Cys conjugated to nanobody VHH05 (conjugate)
VHH: QVQLQESGGGLVQPGGSLRLSCAASGFVFENSAMAWYRQAPGKERELIAVIGTTFIKLAESVKGRFTISRDNAKSTVYLQMNNLKPEDTAVYYCSKSGAYWGQGTQVTVSS
peptide: SVSEIQLMHNLGKHLNSMERVEWLRKKLQDVHNFC
activation of wild-type human PTHR1 (in words) [5]: activates
